Experimental data as given in patent publication US9624215B2, “Amine derivative or salt thereof” (TOYAMA CHEMICAL CO., LTD., priority 2012, dated 2017).

System: normal human neonatal foreskin epidermal keratinocytes (NHEK-F)
Assay: Cell proliferation inhibition test
Type: cell-based
Conditions: Keratinocyte, 72 h, NHEK-F cells, three days incubation, ATPlite or CellTiterGlo, read-out: IC50 (concentration of the compound at which the cell count is reduced by 50%)
Procedure, shortened: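 NHEK-F keratinocytes, 2×10^3 per well in Humedia-EG2, plated overnight, then exposed to compound for three days. Cell count by ATPlite or CellTiterGlo luminescence; inhibition = 100 − (treated/untreated count)×100, IC50 as 50% reduction concentration.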

**Q.** Which IC50 does the source give for `COC/C=C/c1cc(Nc2ncc(C3CC3)cc2C(=O)O)cc2ccn(C)c12` [Example 467, (E)-5-cyclopropyl-2-((7-(3-methoxyprop-1-en-1-yl)-1-methyl-1H-indol-5-yl)amino)nicotinic acid] here?
**A.** The IC50 was 10 to 100 nM.

**Q.** How did the IC50 turn out when `Cc1cc(Nc2ncc(C3CC3)cc2C(=O)O)cc2ccn(Cc3ccccc3)c12` [Example 629, 2-((1-benzyl-7-methyl-1H-indol-5-yl)amino)-5-cyclopropylnicotinic acid] was run?
**A.** Its IC50 is no more than 10 nM.

**Q.** With `O=C(O)c1cc(Cl)ncc1Nc1ccc2c(ccn2Cc2ccccc2)c1` [Example 229, 5-((1-benzyl-1H-indol-5-yl)amino)-2-chloroisonicotinic acid] as the compound, how does the IC50 read?
**A.** Its IC50 is 10 to 100 nM.

**Q.** How did the IC50 turn out when `O=C(O)c1cc(C2CC2)ccc1Nc1ccc2c(ccn2C(=O)c2ccc(Cl)cc2)c1` [Example 204, 2-((1-(4-chlorobenzoyl)-1H-indol-5-yl)amino)-5-cyclopropylbenzoic acid] was run?
**A.** Its IC50 is 10 to 100 nM.

**Q.** `O=C(O)c1cc(C2CC2)cnc1Nc1ccc2cc(-c3ccccc3)ccc2c1` [Example 218, 5-cyclopropyl-2-((6-phenylnaphthalen-2-yl)amino)nicotinic acid] was tested. Which IC50 did it give?
**A.** Its IC50 is 10 to 100 nM.

**Q.** `Cn1ccc2cc(Nc3ncc(C4CC4)cc3C(=O)O)cc(-c3ccccc3Cl)c21` [Example 488, 2-((7-(2-chlorophenyl)-1-methyl-1H-indol-5-yl)amino)-5-cyclopropylnicotinic acid] was tested. Which IC50 did it give?
**A.** The IC50 was no more than 10 nM.

**Q.** `O=C(O)c1cc(Cl)ccc1Nc1ccnc2c1ccn2Cc1ccccc1` [Example 9, 2-((1-benzyl-1H-pyrrolo(2,3-b)pyridin-4-yl)amino)-5-chlorobenzoic acid] was tested. Which IC50 did it give?
**A.** Its IC50 is 10 to 100 nM.

**Q.** `O=C(O)c1cc(Cl)ccc1Nc1ccc2c(c1)c(Cc1ccccc1)cn2Cc1ccccc1` [Example 88, 5-chloro-2-((1,3-dibenzyl-1H-indol-5-yl)amino)benzoic acid] was tested. Which IC50 did it give?
**A.** The IC50 was 10 to 100 nM.

**Q.** Which IC50 does the source give for `Cn1ccc2cc(Nc3ncc(C4CC4)cc3C(=O)O)cc(-c3ccc(Cl)cc3)c21` [Example 490, 2-((7-(4-chlorophenyl)-1-methyl-1H-indol-5-yl)amino)-5-cyclopropylnicotinic acid] here?
**A.** The IC50 was no more than 10 nM.

**Q.** Which IC50 does the source give for `O=C(O)c1cc(C2CC2)cnc1Nc1cccc2c(N3CCOCC3)nccc12` [Example 475, 5-cyclopropyl-2-(1-morpholinoisoquinolin-5-ylamino)nicotinic acid] here?
**A.** Its IC50 is 100 to 1000 nM.

**Q.** For `Cn1ccc2cc(Nc3ncc(C4CC4)cc3C(=O)O)cc(-c3ccccc3-c3ccccc3)c21` [Example 463, 2-((7-([1,1′-biphenyl]-2-yl)-1-methyl-1H-indol-5-yl)amino)-5-cyclopropylnicotinic acid], which IC50 is on record?
**A.** The IC50 was no more than 10 nM.

**Q.** With `O=C(O)c1cc(C2CC2)cnc1Nc1ccc2c(-c3ccccc3)c[nH]c2c1` [Example 43, 5-cyclopropyl-2-((3-phenyl-1H-indol-6-yl)amino)nicotinic acid] as the compound, how does the IC50 read?
**A.** The IC50 was 10 to 100 nM.

**Q.** How did the IC50 turn out when `O=C(O)c1cc(Cl)ccc1Nc1ccc2c(ccn2CC2CCCCC2)c1` [Example 257, 5-chloro-2-((1-(cyclohexylmethyl)-1H-indol-5-yl)amino)benzoic acid] was run?
**A.** The IC50 was no more than 10 nM.

**Q.** With `CC(C)Cn1ccc2c(Nc3ncc(C4CC4)cc3C(=O)O)cccc21` [Example 431, 5-cyclopropyl-2-((1-isobutyl-1H-indol-4-yl)amino)nicotinic acid] as the compound, how does the IC50 read?
**A.** Its IC50 is no more than 10 nM.

**Q.** With `O=C(O)c1cc(C2CC2)cnc1Nc1ccc2c(ccn2Cc2cc(F)c(F)cc2F)c1` [Example 643, 5-cyclopropyl-2-((1-(2,4,5-trifluorobenzyl)-1H-indol-5-yl)amino)nicotinic acid] as the compound, how does the IC50 read?
**A.** The IC50 was no more than 10 nM.

**Q.** Which IC50 does the source give for `Cc1ccc(-c2cc(Nc3ncc(C4CC4)cc3C(=O)O)cc3ccn(C)c23)cc1` [Example 478, 5-cyclopropyl-2-((1-methyl-7-(p-tolyl)-1H-indol-5-yl)amino)nicotinic acid] here?
**A.** The IC50 was no more than 10 nM.

**Q.** How did the IC50 turn out when `Cn1cc(C2CCCC2)c2cc(Nc3ncc(C4CC4)cc3C(=O)O)ccc21` [Example 614, 2-((3-cyclopentyl-1-methyl-1H-indol-5-yl)amino)-5-cyclopropylnicotinic acid] was run?
**A.** The IC50 was 10 to 100 nM.
